These compounds were tested against T1, PRMT5-MEP50 enzyme complex (Homo sapiens, UniProt O14744) (assay: PRMT5-MEP50 Enzyme Methylation Assay). Details: one EC50 shown: 4 parameters single site sigmoidal model; two shown: first EC50 of 7 parameters biphasic model; 1.0 nM PRMT5-MEP50, 75 nM biotinylated H4R3(Me1) peptide, 15 μM SAM; read-out: Enzyme Methylation Assay (EC50 or EC50 1).
T1 construct: Full-length (FL)-PRMT5-MEP50 enzyme complex; made in house; host or cells: baculovirus-transfected Sf21 cells
Assay type: biochemical
Method: PRMT5-MEP50 Enzyme Methylation Assay
PRMT5-MEP50 biochemical assay is a direct measurement of the methylation activity of the enzyme complex on a short peptide substrate derived from the N-terminus of […]. Methylation experiment is performed with recombinant PRMT5-MEP50 protein complex. The assessment of inhibitory effect of small molecules is measured by the effectiveness of the compounds to inhibit this reaction (EC50).
In this assay, the potency (EC50) of each compound was determined from a twenty-point (1:2 serial dilution; top compound concentration of 100000 nM) titration curve using the following outlined procedure. To each well of a white ProxiPlus 384 well-plate, 100 nL of compound (1% DMSO in final assay volume of 10 μL) was dispensed, followed by the addition of 8 μL of 1× assay buffer (50 mM Bicine pH 8.0, 1 mM DTT, 0.004% Tween20, 0.01% BSA) containing 1.25 nM of Full-length (FL)-PRMT5-MEP50 enzyme complex (recombinant proteins from baculovirus-transfected Sf21 cells: FL-PRMT5; MW=[…] and FL-MEP50; MW=38614) and 1 μL of 150 μM S-(5′-Adenosyl)-L-Methionine Chloride (SAM). Plates were sealed and placed in a 37° C. humidified chamber for a 60 minutes pre-incubation with compound. Subsequently, each reaction was initiated by the addition of 1 μL 1× assay buffer containing 750 nM biotinylated H4R3(Me1) peptide. The final reaction in each well of 10 μL consists of 1.0 nM PRMT5-MEP50, 75 nM biotinylated-peptide, and 15 μM SAM. Methylation reactions proceeded for 150 minutes in a sealed plate at 37° C. Reactions were immediately quenched by the addition of 1 μL of 5% formic acid. Plates were then frozen and shipped to SAMDI™ Tech Inc. to determine the percent conversion from H4R3(Me1) to H4R3(Me2). Dose-response curves were generated by plotting percent effect (% product conversion; Y-axis) vs. Log 10 compound concentrations (X-axis). EC50 values were determined by non-linear regression according to models for either sigmoidal (4 parameters) or biphasic (7 parameters) dose-response curves.

T1 sequence (O14744 whole entry): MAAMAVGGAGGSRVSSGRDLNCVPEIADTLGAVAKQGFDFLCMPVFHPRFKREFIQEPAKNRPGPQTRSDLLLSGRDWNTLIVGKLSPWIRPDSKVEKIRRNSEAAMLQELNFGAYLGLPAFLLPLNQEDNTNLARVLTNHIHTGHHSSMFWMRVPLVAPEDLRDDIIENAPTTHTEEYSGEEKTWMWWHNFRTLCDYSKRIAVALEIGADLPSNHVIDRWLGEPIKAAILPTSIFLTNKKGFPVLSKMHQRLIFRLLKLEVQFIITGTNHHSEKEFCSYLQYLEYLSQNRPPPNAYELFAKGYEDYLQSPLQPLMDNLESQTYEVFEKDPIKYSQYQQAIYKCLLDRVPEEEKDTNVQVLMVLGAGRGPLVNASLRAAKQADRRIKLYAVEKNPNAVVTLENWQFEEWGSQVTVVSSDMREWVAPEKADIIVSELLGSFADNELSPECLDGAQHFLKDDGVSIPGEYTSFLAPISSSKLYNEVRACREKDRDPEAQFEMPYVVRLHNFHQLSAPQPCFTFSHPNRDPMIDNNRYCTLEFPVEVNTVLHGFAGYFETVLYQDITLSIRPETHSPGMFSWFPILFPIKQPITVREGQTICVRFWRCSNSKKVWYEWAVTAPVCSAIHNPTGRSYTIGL
T1 sequence (Q9BQA1 whole entry partner): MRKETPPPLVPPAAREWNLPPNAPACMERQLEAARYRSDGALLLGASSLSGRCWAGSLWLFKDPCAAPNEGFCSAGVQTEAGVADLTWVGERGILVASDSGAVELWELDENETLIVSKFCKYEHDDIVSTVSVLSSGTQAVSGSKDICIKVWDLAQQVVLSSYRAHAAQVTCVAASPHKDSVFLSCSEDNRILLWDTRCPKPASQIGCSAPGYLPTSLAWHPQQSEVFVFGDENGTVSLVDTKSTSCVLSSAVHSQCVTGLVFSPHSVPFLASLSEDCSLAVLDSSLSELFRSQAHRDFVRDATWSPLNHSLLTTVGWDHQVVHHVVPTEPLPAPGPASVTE

EC50 [nM]	SMILES
0.3	Nc1nc2cc(C[C@@H]3CC[C@@]4(O)[C@@H]3O[C@@H](n3cc(C5CC5)c5c(N)ncnc53)[C@@H]4O)ccc2cc1F [Example 50]
2.9	Nc1nc2cc(O[C@H]3CC[C@@]4(O)[C@@H]3O[C@@H](n3ccc5c(C(F)F)ncnc53)[C@@H]4O)ccc2cc1Br [Example 79, (2R,3R,3aS,6S,6aR)-6-((2-amino-3-bromoquinolin-7-yl)oxy)-2-(4-(difluoromethyl)-7H-pyrrolo[2,3-d]pyrimidin-7-yl)hexabodro-3aH-cyclopenta[b]furan-3,3a-diol]
0.3	Nc1nc2cc(CCC3(CF)C[C@@H](n4ccc5c(N)ncnc54)[C@H](O)[C@@H]3O)ccc2cc1Br (some centres unmarked) [Example 102]

What follows are compounds tested on symmetric dimethylation of arginine (SDMA) of PRMT5 substrates in MCF-7 cells (assay: PRMT5 Cell Target Engagement (TE) Assay). Details: Homo sapiens, MCF7, 72 h; MCF-7 cells treated for 3 days; nuclear SDMA by high content imaging; top concentration 10000 nM.
Assay type: cell-based
Procedure, shortened: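 MCF-7 cells treated 3 days at 37 °C with 10-point 1:3 titration from 10000 nM top. Fixed cells stained with anti-SDMA antibody plus Alexa488 secondary and Hoechst; nuclear fluorescence quantified by high-content imaging versus DMSO wells. EC50 from 4-parameter fit of percent fluorescence vs log concentration.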

EC50 [nM]	SMILES
2.3	Nc1nc2cc(C[C@@H]3CC[C@@]4(O)[C@@H]3O[C@@H](n3ccc5c(N)ncnc53)[C@@H]4O)ccc2cc1F [Example 124, (2R,3R,3aS,6S,6 aR)-6-((2-amino-3-fluoroquinolin-7-yl)methyl)-2-(4-amino-7H-pyrrolo[2,3-d]pyrimidin-7-yl)hexahydro-3aH-cyclopenta[b]furan-3,3a-diol]
2.9	C[C@]1(CCc2ccc3cc4c(nc3c2)NCC4)C[C@@H](n2ccc3c(N)ncnc32)[C@H](O)[C@@H]1O [Example 126, (1S,2R,3S,5R)-5-(4-amino-7H-pyrrolo[2,3-d]pyrimidin-7-yl)-3-(2-(2,3-dihydro-1H-pyrrolo[2,3-b]quinolin-7-yl)ethyl)-3-methylcyclopentane-1,2-diol]
236	Nc1nc2cc(CC3OC[C@@]4(O)C3C[C@@H](n3ccc5c(N)ncnc53)[C@@H]4O)ccc2cc1Br (some centres unmarked) [Example 132]
2.7	Cc1ncnc2c1ccn2[C@@H]1O[C@@H]2[C@H](Cc3ccc4cc(Br)c(N)nc4c3)OC[C@]2(O)[C@H]1O [Example 133]
35.8	Cc1ncnc2c1ccn2[C@@H]1O[C@@H]2[C@@H](Cc3ccc4cc(Br)c(N)nc4c3)OC[C@]2(O)[C@H]1O [Example 134, (2R,3R,3aS,6R,6aR)-6-((2-amino-3-bromoquinolin-7-yl)methyl)-2-(4-methyl-7H-pyrrolo[2,3-d]pyrimidin-7-yl)tetrahydrofuro[3,4-b]furan-3,3a(4H)-diol]
0.4	Nc1nc2cc(C[C@@H]3OC[C@@]4(O)[C@@H]3O[C@@H](n3ccc5c(N)ncnc53)[C@@H]4O)ccc2cc1Br [Example 136, (2R,3R,3aS,6S,6aR)-6-((2-amino-3-bromoquinolin-7-yl)methyl)-2-(4-amino-7H-pyrrolo[2,3-d]pyrimidin-7-yl)tetrahydrofuro[3,4-b]furan-3,3a(4H)-diol]

Continued, compound first:

SMILES	EC50 [nM]
Cc1cc2ccc(C[C@@H]3CC[C@@]4(O)[C@@H]3O[C@@H](n3ccc5c(N)ncnc53)[C@@H]4O)cc2nc1N [Example 125, (2R,3R,3aS,6S,6aR)-6-((2-amino-3-methylquinolin-7-yl)methyl)-2-(4-amino-7H-pyrrolo[2,3-d]pyrimidin-7-yl)hexahydro-3aH-cyclopenta[b]furan-3,3a-diol]	0.7
Cc1nc(N)nc2c1ccn2[C@@H]1O[C@@H]2[C@H](Cc3ccc4cc(Br)c(N)nc4c3)CC[C@]2(O)[C@H]1O [Example 127, (2R,3R,3aS,6S,6aR)-6-((2-amino-3-bromoquinolin-7-yl)methyl)-2-(2-amino-4-methyl-7-pyrrolo[2,3-d]pyrimidin-7-yl)hexahydro-3aH-cyclopenta[b]furan-3,3a-diol]	0.8
Nc1nc2cc(O[C@H]3CC[C@@]4(O)[C@@H]3O[C@@H](n3ccc5c(N)ncnc53)[C@@H]4O)ccc2cc1C(F)F [Example 128, (2R,3R,3aS,6S,6aR)-6-((2-amino-3-(difluoromethyl)quinolin-7-yl)oxy)-2-(4-amino-7H-pyrrolo[2,3-d]pyrimidin-7-yl)hexahydro-3aH-cyclopenta[b]furan-3,3a-diol]	15.5
Cc1ncnc2c1ccn2[C@@H]1O[C@@H]2[C@H](Oc3ccc4cc(Br)c(N)nc4c3)CC[C@]2(O)[C@H]1O [Example 129, (2R,3R,3aS,6R,6aR)-6-((2-amino-3-bromoquinolin-7-yl)oxy)-2-(4-methyl-7H-pyrrolo[2,3-d]pyrimidin-7-yl)hexahydro-3aH-cyclopenta[b]furan-3,3a-diol]	10000
Nc1ncc2c(F)cn([C@@H]3O[C@@H]4[C@@H](Oc5ccc6cc(Br)c(N)nc6c5)CC[C@]4(O)[C@H]3O)c2n1 [Example 130, (2R,3R,3aS,6S,6aR)-6-((2-amino-3-bromoquinolin-7-yl)oxy)-2-(2-amino-5-fluoro-7H-pyrrolo[2,3-d]pyrimidin-7-yl)hexahydro-3aH-cyclopenta[b]furan-3,3a-diol]	135
Cc1ncnc2c1ccn2[C@@H]1O[C@@H]2[C@@H](Cc3ccc4cc(Cl)c(N)nc4c3)CC[C@]2(O)[C@H]1O [Example 131, (2R,3R,3aS,6R,6aR)-6-((2-amino-3-chloroquinolin-7-yl)methyl)-2-(4-methyl-7H-pyrrolo[2,3-d]pyrimidin-7-yl)hexahydro-3aH-cyclopenta[b]furan-3,3a-diol]	21.3
Cc1cn([C@@H]2O[C@@H]3[C@H](Cc4ccc5cc(Br)c(N)nc5c4)OC[C@]3(O)[C@H]2O)c2ncnc(N)c12 [Example 135, (2R,3R,3aS,6S,6aR)-6-((2-amino-3-bromoquinolin-7-yl)methyl)-2-(4-amino-5-methyl-7H-pyrrolo[2,3-d]pyrimidin-7-yl)tetrahydrofuro[3,4-b]furan-3,3a(4H)-diol]	0.6
Nc1nc2cc(C[C@@H]3CC[C@@]4(O)[C@@H]3O[C@@H](n3ccc5c(N)ncnc53)[C@@H]4O)ccc2cc1C(F)F [Example 137, (2R,3R,3aS,6S,6aR)-6-((2-amino-3-(difluoromethyl)quinolin-7-yl)methyl)-2-(4-amino-7H-pyrrolo[2,3-d]pyrimidin-7-yl)hexahydro-2H-cyclopenta[b]furan-3,3a-diol]	0.8

Same assay, conditions: MCF-7 cells treated for 3 days; nuclear SDMA by high content imaging; top concentration 10000 nM

EC50 [nM]	SMILES
0.7	Nc1nc2cc(C[C@@H]3CC[C@@]4(O)[C@@H]3O[C@@H](n3cc(C5CC5)c5c(N)ncnc53)[C@@H]4O)ccc2cc1F [Example 50]
52.5	Nc1nc2cc(O[C@H]3CC[C@@]4(O)[C@@H]3O[C@@H](n3ccc5c(C(F)F)ncnc53)[C@@H]4O)ccc2cc1Br [Example 79, (2R,3R,3aS,6S,6aR)-6-((2-amino-3-bromoquinolin-7-yl)oxy)-2-(4-(difluoromethyl)-7H-pyrrolo[2,3-d]pyrimidin-7-yl)hexabodro-3aH-cyclopenta[b]furan-3,3a-diol]
2	Nc1nc2cc(CCC3(CF)C[C@@H](n4ccc5c(N)ncnc54)[C@H](O)[C@@H]3O)ccc2cc1Br (some centres unmarked) [Example 102]
